This is an account of results in patent US6399634B1, “Benzothiophene compounds, compositions, and methods” (Eli Lilly and Company, priority 1994, dated 2002).

Structures are written as SMILES. Counter-ions that a name gives are not always drawn.

Series [1] concerns MCF-7 breast adenocarcinoma cells. In words: MCF-7 Proliferation Assay (tritiated thymidine). The class given is cell-based. The settings on record: Homo sapiens, MCF7; MCF-7 cells, 48 hours with drug, tritiated thymidine pulse 4 hours. Here is the method:
MCF-7 breast adenocarcinoma cells (ATCC HTB 22) were maintained in MEM (minimal essential medium, phenol red-free, Sigma, St. Louis, Mo.) supplimented with 10% fetal bovine serum (FBS) (V/V), L-glutamine (2 mM), sodium pyruvate (1 mM), HEPES {(N-[2-hydroxyethyl]piperazine-N′-[2-ethanesulfonic acid]10 mM}, non-essential amino acids and bovine insulin (1 ug/mL) (maintenance medium). Ten days prior to assay, MCF-7 cells were switched to maintenance medium supplemented with 10% dextrancoated charcoal stripped fetal bovine serum (DCC-FBS) assay medium) in place of 10% FBS to deplete internal stores of steroids. MCF-7 cells were removed from maintenance flasks using cell dissociation medium (Ca++/Mg++ free HBSS (phenol red-free) supplemented with 10 mM HEPES and 2 mM EDTA). Cells were washed twice with assay medium and adjusted to 80,000 cells/mL. Approximately 100 μL (8,000 cells) were added to flat-bottom microculture wells (Costar 3596) and incubated at 37° C. in a 5% CO2 humidified incubator for 48 hours to allow for cell adherence and equilibration after transfer. Serial dilutions of drugs or DMSO as a diluent control were prepared in assay medium and 50 μL transferred to triplicate microcultures followed by 50 μL assay medium for a final volume of 200 μL. After an additional 48 hours at 37° C. in a 5% CO2 humidified incubator, microcultures were pulsed with tritiated thymidine (1 uCi/well) for 4 hours. Cultures were terminated by freezing at −70° C. for 24 hours followed by thawing and harvesting of microcultures using a Skatron Semiautomatic Cell Harvester. Samples were counted by liquid scintillation using a Wallac BetaPlace β counter. Results in Table 7 below show the IC50 for certain compounds of the present invention.

Series [2] relates to ovariectomized (OVX) rats. Description: Osteoporosis Test Procedure: femur bone density in OVX rats after 35 days of dosing. The settings on record: mean ± SEM. The class given is in vivo, Sprague Dawley rats. An excerpt:
Seventy-five day old female Sprague Dawley rats (weight range of 200 to 225 g) were obtained from Charles River Laboratories (Portage, Mich.). The animals were either bilaterally ovariectomized (OVX) or exposed to a Sham surgical procedure at Charles River Laboratories, and then shipped after one week. Upon arrival, they were housed in metal hanging cages in groups of 3 or 4 per cage and had ad libitum access to food (calcium content approximately 0.5%) and water for one week. Room temperature was maintained at 22.2°±1.7° C. with a minimum relative humidity of 40%. The photoperiod in the room was 12 hours light and 12 hours dark. Following the General Preparation Procedure, infra, the rats were treated daily for 35 days (6 rats per treatment group) and sacrificed by decapitation on the 36th day. The 35 day time period was sufficient to allow maximal reduction in bone density, measured as described herein. At the time of sacrifice, the uteri were removed, dissected free of extraneous tissue, and the fluid contents were expelled before determination of wet weight in order to confirm estrogen deficiency associated with complete ovariectomy. […] The uteri were then placed in 10% neutral buffered formalin to allow for subsequent histological analysis. The right femurs were excised and scanned at the distal metaphysis 1 mm from the patellar groove with single photon absorptiometry. Results of the densitometer measurements represent a calculation of bone density as a function of the bone mineral content and bone width. In accordance with the above procedures, compounds of the present invention and ethynyl estradiol (EE2) in 20% hydroxypropyl β-cyclodextrin were orally administered to test animals. Data presented in Tables 5 and 6 below are the results of these treatments compared to intact and ovariectomized test animals. Results are reported as the mean±the standard error of the mean.

The test system of series [3] is ovariectomized (OVX) rats. Description: Serum cholesterol analysis in ovariectomized rats, 4 days of dosing. The series is classed as in vivo, Sprague Dawley rats. The settings on record: oral, daily for 4 days. An excerpt: (§1) Seventy-five day old female Sprague Dawley rats (weight range of 200 to 225 g) were obtained from Charles River Laboratories (Portage, Mich.). The animals were either bilaterally ovariectomized (OVX) or exposed to a Sham surgical procedure at Charles River Laboratories, and then shipped after one week. Upon arrival, they were housed in metal hanging cages in groups of 3 or 4 per cage and had ad libitum access to food (calcium content approximately 0.5%) and water for one week. Room temperature was maintained at 22.2°±1.7° C. with a minimum relative humidity of 40%. The photoperiod in the room was 12 hours light and 12 hours dark.
(§2) Dosing Regimen Tissue Collection. After a one week acclimation period (therefore, two weeks post-OVX) daily dosing with test compound was initiated. 17α-ethynyl estradiol or the test compound were given orally, unless otherwise stated, as a suspension in 1% carboxymethylcellulose or dissolved in 20% cyclodextrin. Animals were dosed daily for 4 days. Following the dosing regimen, animals were weighed and anesthetized with a ketamine: Xylazine (2:1, V:V) mixture and a blood sample was collected by cardiac puncture. The animals were then sacrificed by asphyxiation with CO2, the uterus was removed through a midline incision, and a wet uterine weight was determined.
Cholesterol Analysis. Blood samples were allowed to clot at room temperature for 2 hours, and serum was obtained following centrifugation for 10 minutes at 3000 rpm. Serum cholesterol was determined using a Boehringer Mannheim Diagnostics high performance cholesterol assay. Briefly the cholesterol was oxidized to cholest-4-en-3-one and hydrogen peroxide. The hydrogen peroxide was then reacted with phenol and 4-aminophenazone in the presence of peroxidase to produce a p-quinone imine dye, which was read spectrophotemetrically at 500 nm. Cholesterol concentration was then calculated against a standard curve. The entire assay was automated using a Biomek Automated Workstation.

Series [4] relates to ovariectomized (OVX) rats. Description: Uterine wet weight in ovariectomized rat post-menopausal model, 4 days of dosing. The series is classed as in vivo, Sprague Dawley rats. To be noted: oral, daily for 4 days. Here is the method: In the examples illustrating the methods, a post-menopausal model was used in which effects of different treatments upon circulating lipids were determined.
as §1, §2

Series [5] relates to Uterine Eosinophil Peroxidase (EPO). Description: Uterine Eosinophil Peroxidase (EPO) Assay on uteri of dosed OVX rats. The class given is in vivo, Sprague Dawley rats. To be noted: female, Sprague Dawley, rat, in vivo, po, 4 days.
From the text: as §1, §2
Uterine Eosinophil Peroxidase (EPO) Assay. Uteri were kept at 4° C. until time of enzymatic analysis. The uteri were then homogenized in 50 volumes of 50 mM Tris buffer (pH−8.0) containing 0.005% Triton X-100. Upon addition of 0.01% hydrogen peroxide and 10 mM o-phenylenediamine (final concentrations) in Tris buffer, increase in absorbance was monitored for one minute at 450 nm. The presence of eosonophils in the uterus is an indication of estrogenic activity of a compound. The maximal velocity of a 15 second interval was determined over the initial, linear portion of the reaction curve.

For series [6] the test system is unchanged. The description is as above. The series is classed as in vivo, Sprague Dawley rats. The settings on record: ovariectomized rats.

The compound `CC(C)(C)C(=O)Oc1ccc(-c2sc3cc(OC(=O)C(C)(C)C)ccc3c2Cc2ccc(OCCN3CCCCC3)cc2)cc1` [(q)-Ex17, [6-{1,1,1-Trimethylacetyloxy}-2-(4-{1,1,1-Trimethylacetyloxy}Phenyl)Benzo[B]Thien-3-Yl][4-[2-(1-Piperidinyl)Ethoxy]Phenyl]Methane Hydrochloride] returned an IC50 in series [1] of 0.01 nM. Further, the “Bone Density” value in series [2] (Table 5, oral, 0.01 mg/kg, OVX control 26.18, intact control 70.22, * P <= 0.05) was 17.63 ± 2.94 mg/cm/cm; in series [2] (Table 5, oral, 0.1 mg/kg, OVX control 26.18, intact control 70.22, * P <= 0.05), 24.77 ± 4.65 mg/cm/cm; in series [2] (Table 6, oral, 0.01 mg/kg, OVX control 32.46, intact control 81.27, * P <= 0.05) it was 36.44 ± 44 mg/cm/cm; in series [2] (Table 6, oral, 1.0 mg/kg, OVX control 32.46, intact control 81.27, * P <= 0.05), 36.07 ± 4.20 mg/cm/cm. In addition, the “Serum Cholesterol (% decrease vs. OVX)” value in series [3] (dose 0.1 mg/kg) stood at 55.8%; in series [3] (dose 1.0 mg/kg), 56.8%; in series [3] (dose 10.0 mg/kg), 58.8%. Besides, the “Uterine Weight (% increase vs. OVX)” value in series [4] (dose 0.1 mg/kg) was −22.7%; in series [4] (dose 1.0 mg/kg), −32.4%; in series [4] (dose 10.0 mg/kg) it was −25.2%. Moreover, the results for the “Uterine EPO (V. max)” value in series [5] (0.1 mg/kg), in series [5] (1 mg/kg) and in series [5] (10 mg/kg) were 3.1, 3.0 and 2.8, respectively.
Consider `C[C@]12CC[C@@H]3c4ccc(O)cc4CC[C@H]3[C@@H]1CC[C@@H]2O` [estradiol], for which the “Eosinophil infiltration into the uterus (number of eosinophils in the stromal layer, in words)” value in series [6] is recorded as “substantial, expected increase in eosinophil infiltration”.

As a reminder, the IC50 is the concentration that inhibits the measured activity by half. Higher therefore signals a need for much substance.
